Legend:
Format in all cases: in vivo
[1] = test system: barnyardgrass (Echinochloa crus-galli); assay: Test A postemergence; conditions: Echinochloa crus-galli, post-emergence, 240 h
Method in brief: (§1)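 Treatment is preemergence as a directed soil spray after planting, or postemergence at the one- to two-leaf stage, with test chemical in a non-phytotoxic solvent mixture plus surfactant. Plants stay in the greenhouse about 10 d before visual injury scoring on a 0 to 100 scale versus untreated controls.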

[2] = test system: blackgrass (Alopecurus myosuroides); assay: Test A postemergence; conditions: Alopecurus myosuroides, post-emergence, 240 h
Method in brief: as §1

[3] = test system: pigweed (Amaranthus retroflexus); assay: Test A postemergence; conditions: Amaranthus retroflexus, post-emergence, 240 h
Method in brief: as §1

[4] = test system: ragweed (common ragweed, Ambrosia elatior); assay: Test A postemergence; conditions: Ambrosia artemisiifolia, post-emergence, 240 h
Method in brief: as §1

[5] = test system: ryegrass, Italian (Italian ryegrass, Lolium multiflorum); assay: Test A postemergence; conditions: Lolium multiflorum, post-emergence, 240 h
Method in brief: as §1

[6] = test system: giant foxtail (Setaria faberii); assay: Test A postemergence; conditions: Setaria faberi, post-emergence, 240 h
Method in brief: as §1

corn (Zea mays) = assay: Test A postemergence; conditions: Zea mays, post-emergence, 240 h
Method in brief: as §1

[7] = test system: Galium (catchweed bedstraw, Galium aparine); assay: Test A postemergence; conditions: Galium, post-emergence, 240 h
Method in brief: as §1

[8] = test system: wheat (Triticum aestivum); assay: Test A postemergence; conditions: Triticum aestivum, post-emergence, 240 h
Method in brief: as §1

Kochia (Kochia scoparia) [9] = assay: Test A postemergence; conditions: Bassia scoparia, post-emergence, 240 h
Method in brief: as §1

[10] = test system: barnyardgrass (Echinochloa crus-galli); assay: Test A preemergence; conditions: Echinochloa crus-galli, pre-emergence, 240 h, 0 to 100 scale where 0 is no effect and 100 is complete control, read-out: Barnyardgrass plant response rating
Method in brief: as §1

[11] = test system: pigweed (Amaranthus retroflexus); assay: Test A preemergence; conditions: Amaranthus retroflexus, pre-emergence, 240 h, 0 to 100 scale where 0 is no effect and 100 is complete control, read-out: Pigweed plant response rating
[12] = test system: ragweed (common ragweed, Ambrosia elatior); assay: Test A preemergence; conditions: Ambrosia artemisiifolia, pre-emergence, 240 h, 0 to 100 scale where 0 is no effect and 100 is complete control, read-out: Ragweed plant response rating
Method in brief: as §1

[13] = test system: ryegrass, Italian (Italian ryegrass, Lolium multiflorum); assay: Test A preemergence; conditions: Lolium multiflorum, pre-emergence, 240 h, 0 to 100 scale where 0 is no effect and 100 is complete control, read-out: Ryegrass, Italian plant response rating
Method in brief: as §1

[14] = test system: giant foxtail (Setaria faberii); assay: Test A preemergence; conditions: Setaria faberi, pre-emergence, 240 h, 0 to 100 scale where 0 is no effect and 100 is complete control, read-out: Foxtail, Giant plant response rating
Method in brief: as §1

Kochia (Kochia scoparia) [15] = assay: Test A preemergence; conditions: Bassia scoparia, pre-emergence, 240 h, 0 to 100 scale where 0 is no effect and 100 is complete control, read-out: Kochia plant response rating
Method in brief: as §1

[16] = test system: barnyardgrass (Echinochloa crus-galli); assay: Test B flooded paddy test; conditions: Echinochloa crus-galli, 250 g ai/ha, Flood; 0 to 100 scale where 0 is no effect and 100 is complete control; read-out: Barnyardgrass plant response rating
Method in brief: (§2)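 Percent control, visually estimated after 13–15 d in the greenhouse on a 0–100 basis, compares treated pots with untreated ones; compound was put into paddy water 3 cm above the soil when plants had two leaves.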

[17] = test system: ducksalad (Heteranthera limosa); assay: Test B flooded paddy test; conditions: Heteranthera limosa, 250 g ai/ha, Flood; 0 to 100 scale where 0 is no effect and 100 is complete control; read-out: Ducksalad plant response rating
Method in brief: as §2

[18] = test system: sedge, umbrella (small-flower umbrella sedge, Cyperus difformis); assay: Test B flooded paddy test; conditions: Cyperus difformis, 250 g ai/ha, Flood; 0 to 100 scale where 0 is no effect and 100 is complete control; read-out: Sedge, Umbrella plant response rating
Method in brief: as §2

rice (Oryra sativa) = assay: Test B flooded paddy test; conditions: Oryza sativa, 250 g ai/ha, Flood; 0 to 100 scale where 0 is no effect and 100 is complete control; read-out: Rice plant response rating
Method in brief: as §2

[19] = 125 g ai/ha, preemergence, approx. 10 d

Structure (SMILES): CN1C[C@H](c2cccc(C(F)(F)F)c2)[C@@H](C(=O)Nc2ccccc2CCO)C1=O (racemic) [Compound 1162]
- pest or weed control at 125 g/ha ([1]; 125 g ai/ha, postemergence, visual injury vs untreated controls after approx. 10 d, 0 = no effect, 100 = complete control, read-out: Barnyardgrass plant response rating (0 to 100 scale)): 60%
- pest or weed control at 31 g/ha ([1]; Postemergence, 31 g ai/ha, visual injury after approx. 10 d, 0 to 100 scale, 0 no effect, 100 complete control, read-out: Plant response rating, Barnyardgrass): 30%
- pest or weed control at 125 g/ha ([2]; 125 g ai/ha, postemergence, visual injury vs untreated controls after approx. 10 d, 0 = no effect, 100 = complete control, read-out: Blackgrass plant response rating (0 to 100 scale)): 0%
- pest or weed control at 31 g/ha ([2]; Postemergence, 31 g ai/ha, visual injury after approx. 10 d, 0 to 100 scale, 0 no effect, 100 complete control, read-out: Plant response rating, Blackgrass): 0%
- pest or weed control at 125 g/ha ([3]; 125 g ai/ha, postemergence, visual injury vs untreated controls after approx. 10 d, 0 = no effect, 100 = complete control, read-out: Pigweed plant response rating (0 to 100 scale)): 0%
- pest or weed control at 31 g/ha ([3]; Postemergence, 31 g ai/ha, visual injury after approx. 10 d, 0 to 100 scale, 0 no effect, 100 complete control, read-out: Plant response rating, Pigweed): 0%
- pest or weed control at 125 g/ha ([4]; 125 g ai/ha, postemergence, visual injury vs untreated controls after approx. 10 d, 0 = no effect, 100 = complete control, read-out: Ragweed plant response rating (0 to 100 scale)): 0%
- pest or weed control at 31 g/ha ([4]; Postemergence, 31 g ai/ha, visual injury after approx. 10 d, 0 to 100 scale, 0 no effect, 100 complete control, read-out: Plant response rating, Ragweed): 0%
- pest or weed control at 125 g/ha ([5]; 125 g ai/ha, postemergence, visual injury vs untreated controls after approx. 10 d, 0 = no effect, 100 = complete control, read-out: Ryegrass, Italian plant response rating (0 to 100 scale)): 0%
- pest or weed control at 31 g/ha ([5]; Postemergence, 31 g ai/ha, visual injury after approx. 10 d, 0 to 100 scale, 0 no effect, 100 complete control, read-out: Plant response rating, Ryegrass, Italian): 0%
- pest or weed control at 125 g/ha ([6]; 125 g ai/ha, postemergence, visual injury vs untreated controls after approx. 10 d, 0 = no effect, 100 = complete control, read-out: Foxtail, Giant plant response rating (0 to 100 scale)): 40%
- pest or weed control at 31 g/ha ([6]; Postemergence, 31 g ai/ha, visual injury after approx. 10 d, 0 to 100 scale, 0 no effect, 100 complete control, read-out: Plant response rating, Foxtail, Giant): 30%
- plant injury at 125 g/ha (corn (Zea mays); 125 g ai/ha, postemergence, visual injury vs untreated controls after approx. 10 d, 0 = no effect, 100 = complete control, read-out: Corn plant response rating (0 to 100 scale)): 0%
- Corn plant response rating (crop injury, 0 = no effect, 100 = complete kill) at 31 g/ha (corn (Zea mays); Postemergence, 31 g ai/ha, visual injury after approx. 10 d, 0 to 100 scale, 0 no effect, 100 complete control): 0%
- pest or weed control at 125 g/ha ([7]; 125 g ai/ha, postemergence, visual injury vs untreated controls after approx. 10 d, 0 = no effect, 100 = complete control, read-out: Galium plant response rating (0 to 100 scale)): 50%
- pest or weed control at 31 g/ha ([7]; Postemergence, 31 g ai/ha, visual injury after approx. 10 d, 0 to 100 scale, 0 no effect, 100 complete control, read-out: Plant response rating, Galium): 0%
- plant injury at 125 g/ha ([8]; 125 g ai/ha, postemergence, visual injury vs untreated controls after approx. 10 d, 0 = no effect, 100 = complete control, read-out: Wheat plant response rating (0 to 100 scale)): 20%
- plant injury at 31 g/ha ([8]; Postemergence, 31 g ai/ha, visual injury after approx. 10 d, 0 to 100 scale, 0 no effect, 100 complete control, read-out: Plant response rating, Wheat): 0%
- pest or weed control at 125 g/ha (Kochia (Kochia scoparia) [9]; 125 g ai/ha, postemergence, visual injury vs untreated controls after approx. 10 d, 0 = no effect, 100 = complete control, read-out: Kochia plant response rating (0 to 100 scale)): 0%
- pest or weed control at 31 g/ha (Kochia (Kochia scoparia) [9]; Postemergence, 31 g ai/ha, visual injury after approx. 10 d, 0 to 100 scale, 0 no effect, 100 complete control, read-out: Plant response rating, Kochia): 0%
- pest or weed control at 31 g/ha ([10]; 31 g ai/ha, Preemergence): 40%
- pest or weed control at 125 g/ha [10, 19]: 90%
- pest or weed control at 31 g/ha ([11]; 31 g ai/ha, Preemergence): 0%
- pest or weed control at 125 g/ha [11, 19]: 0%
- pest or weed control at 31 g/ha ([12]; 31 g ai/ha, Preemergence): 0%
- pest or weed control at 125 g/ha [12, 19]: 0%
- pest or weed control at 31 g/ha ([13]; 31 g ai/ha, Preemergence): 0%
- pest or weed control at 125 g/ha [13, 19]: 20%
- pest or weed control at 31 g/ha ([14]; 31 g ai/ha, Preemergence): 50%
- pest or weed control at 125 g/ha [14, 19]: 90%
- pest or weed control at 31 g/ha (Kochia (Kochia scoparia) [15]; 31 g ai/ha, Preemergence): 0%
- pest or weed control at 125 g/ha (Kochia (Kochia scoparia) [15]; [19]): 0%
- pest or weed control at 250 g/ha [16]: 35%
- pest or weed control at 250 g/ha [17]: 80%
- pest or weed control at 250 g/ha [18]: 0%
- pest or weed control at 250 g/ha (rice (Oryra sativa)): 15%
